Results reported in patent publication US5502242A, “Propiolate ester compound an acaricide containing the same as an active ingredient and an acaricidal method” (Sumitomo Chemical Company, Limited, priority 1993, dated 1996).

How the values were obtained:
Type in all cases: in vivo
[1] = test system: Dermatophagoides pteronyssinus; experiment: Activity against Dermatophagoides pteronyssinus (treated filter paper, Biological Test Example 1); conditions: 24 h, 0.8 g/m^2 on filter paper, after one day
Source text: (§1) A piece of filter paper (diameter: 4 cm) was impregnated uniformly with an acetone solution of the present compound so that the amount of the impregnated compound was 0.8 g/m^2 after being air-dried. Approximately twenty heads of mites (Tyrophagus putrescentiae, Dermatophagoides farinae Hughes and Dermatophagoides pteronyssinuis) were put on the surface of the treated filter paper. An adhesive substance was applied on the circumference of the filter paper for preventing escape. After one day, the mortality was examined. The results for Tyrophagus putrescentiae, Dermatophagoides farinae Hughes and Dermatophagoides pteronyssinus are shown in Table 3, Table 4, and Table 5, respectively.

[2] = test system: Dermatophagoides farinae Hughes; experiment: Activity against Dermatophagoides farinae Hughes (treated filter paper, Biological Test Example 1); conditions: 24 h, 0.8 g/m^2 on filter paper, after one day
Source text: as §1

[3] = test system: Dermatophagoides pteronyssinus; experiment: Residual activity against Dermatophagoides pteronyssinus (treated filter paper, Biological Test Example 2); conditions: 24 h, 0.8 g/m^2 on filter paper, mites put on seven days after treatment, mortality after one day
Source text: A piece of filter paper (diameter: 4 cm) was impregnated uniformly with an acetone solution of the compound sample so that the amount of the compound was 0.8 g/m^2 after being air-dried. After seven days, approximately twenty heads of mites (Dermatophagoides pteronyssinus) were put on the surface of the treated filter paper. An adhesive substance was applied on the circumference of the filter paper for preventing escape. After one day, the mortality was examined.

Tyrophagus putrescentiae [4] = experiment: Activity against Tyrophagus putrescentiae (treated filter paper, Biological Test Example 1); conditions: 24 h, 0.8 g/m^2 on filter paper, after one day
Source text: as §1

Tyrophagus putrescentiae [5] = experiment: Fumigating activity against Tyrophagus putrescentiae (heated porous ceramic plate in peat grady chamber, Biological Test Example 3); conditions: 24 h, 55 mg/m^3, ceramic plate heated at 175° C., after twenty-four hours
Source text: A piece of filter paper (diameter: 4 cm) was placed in an aluminum plate and an adhesive substance was applied on the circumference of the filter paper for preventing escape. Fifty to a hundred heads of mites (Tyrophagus putrescentiae) were put with little feed on the filter paper. Three sets of such filter paper with mites were placed on three corners (approximately 30 cm from the wall) in a floor of a peat grady chamber (1.8 m ×1.8 m ×1.8 m). A porous ceramic plate (4 cm ×4 cm ×1.2 cm) impregnated with an acetone solution of the present compound (concentration: 55 mg/m^3) was heated at 175° C. with an electric heater placed on the center of the floor of the chamber. After twenty-four hours, the mortality was examined.

Compound | mortality at 0.8 g/m2 [1] [%] | mortality at 0.8 g/m2 [2] [%] | mortality at 0.8 g/m2 [3] [%] | mortality at 0.8 g/m2 (Tyrophagus putrescentiae [4]) [%] | mortality at 55 mg/m3 (Tyrophagus putrescentiae [5]) [%]
C#CC(=O)OCCCOCc1ccccc1 [Compound 17] | 100 | 100 | 100 | 100 | –
C#CC(=O)OCCCCOc1c(C)cccc1C [Compound 13] | 100 | 100 | 92 | 100 | –
C#CC(=O)OCC(C)COc1ccccc1 (centres unmarked) [Compound 23] | – | 100 | 100 | 100 | –
C#CC(=O)OCCCCCCOc1ccccc1 [Compound 19] | – | 100 | 100 | 100 | –
O=C(Oc1ccccc1)c1ccccc1O [Phenyl salicylate, reference compound] | – | – | – | – | 28
C#CC(=O)OCCCCCOc1ccccc1 [Compound 8] | 100 | 100 | 100 | 100 | –
C#CC(=O)OCCCOc1c(C)cccc1C [Compound 27] | – | 86 | 100 | 100 | –
C#CC(=O)OCCCCOc1c(C(C)C)cccc1C(C)C [Compound 15] | 100 | 100 | 95 | 100 | –
C#CC(=O)OCCCOc1ccc(C)cc1C [Compound 9] | 100 | 100 | 100 | 100 | –
C#CC(=O)OCCCCOc1ccc(CC)cc1 [Compound 22] | – | 100 | 100 | 96 | –
C#CC(=O)OCCCCOc1ccc(C)cc1C [Compound 12] | 100 | 100 | 100 | 100 | –
C#CC(=O)OCCCOc1ccccc1 [Compound 6] | 100 | 100 | 100 | 100 | –
C#CC(=O)OCCCCOc1ccc(C)cc1 [Compound 11, 4-(4-methylphenoxy)butyl propiolate] | 100 | 100 | 100 | 100 | 79
C#CC(=O)OCCC(C)COc1ccccc1 (centres unmarked) [Compound 25] | – | 100 | 100 | 100 | –
C#CC(=O)OCCCCCOc1c(C)cccc1C [Compound 14] | 100 | 100 | 100 | 100 | –
C#CC(=O)OCCOCc1ccc(CC)cc1 [Compound 28] | – | 100 | 97 | 100 | –
C#CC(=O)OCCC(C)COc1ccc(C)cc1 (centres unmarked) [Compound 26] | – | 96 | 94 | 100 | –
C#CC(=O)OCCCCCCCc1ccccc1 [Compound 3, 7-phenylheptyl propiolate] | 100 | 100 | 100 | 100 | 96
C#CC(=O)OCC(C)COc1ccc(C)cc1 (centres unmarked) [Compound 24] | – | 100 | 100 | 100 | –
C#CC(=O)OCCCCCc1ccccc1 [Compound 1, 5-phenylpentyl propiolate] | 100 | 100 | 95 | 100 | 76
C#CC(=O)OCCOCc1ccccc1 [Compound 16, 2-benzyloxyethyl propiolate] | 100 | 100 | 83 | 100 | –
C#CC(=O)OCCCOc1ccc(CC)cc1 [Compound 20] | – | 100 | 100 | 100 | –
C#CC(=O)OCCCCCCCCCc1ccccc1 [Compound 5] | 100 | 100 | 100 | 100 | –
C#CC(=O)OCCCCOc1ccccc1C [Compound 10, 4-(2-methylphenoxy)butyl propiolate] | 100 | 100 | 100 | 100 | –
C#CC(=O)OCCCCCOc1ccc(C)cc1 [Compound 21] | – | 100 | 100 | 100 | –
C#CC(=O)OCCCCCCc1ccccc1 [Compound 2, 6-phenylhexyl propiolate] | 100 | 100 | 100 | 100 | 73
C#CC(=O)OCC(C)OCc1ccccc1 (centres unmarked) [Compound 29] | – | 100 | 82 | 100 | –
C#CC(=O)OCCOCc1ccc(C)cc1 [Compound 18] | 100 | 100 | 100 | 100 | –
C#CC(=O)OCCCCOc1ccccc1 [Compound 7] | 100 | 100 | 100 | 100 | –
C#CC(=O)OCCCCCCCCc1ccccc1 [Compound 4] | 100 | 100 | 100 | 100 | –
